For 100 compounds, cytotoxicity results are on record in ChEMBL document CHEMBL3507680, “University of Dundee, Gates Library screen for HepG2 cell viability”.

The nature of this data set: Human HepG2 cell viability assay in 384 well format. Type of data set: toxicity, cell-based. Further details: dose 125 nL, time 70.5 hour; cytotoxicity at 70.5 h: concentration not given beside the values. As to conditions: HepG2 cells, read-out: Inhibition.
Consider `CCCS(=O)(=O)C(C)C(=O)Nc1ccc2oc(C3CC3)nc2c1` (stereo not given), for which the cytotoxicity at 70.5 h was -2.1%.

Consider `COc1ccc(Oc2ncccc2NC(=O)N2CCOCC2)cc1`, for which the cytotoxicity at 70.5 h is -6.42%.

In the case of `COc1ccc2c(c1)ncn2C[C@]1(O)CCCN2CCCC[C@@H]21`, the cytotoxicity at 70.5 h was -13.3%.

On to `CS(=O)(=O)CC(=O)NCC1OCCc2cn(CC3CC3)nc21` (stereo not given), for which the cytotoxicity at 70.5 h was -1.93%.

On to `COc1cccc(CN(C)CCCn2cnc3c(N)ncnc32)c1`, for which the cytotoxicity at 70.5 h was -9.38%.

As to `COc1ccc(OC)c(CN(C(=O)c2ccc(C)[nH]c2=O)C2CC2)c1`, the cytotoxicity at 70.5 h was 3.46%.

For the compound `Cc1nc(CN2CCOCC3(CCN(c4cccnc4)CC3)C2)cs1`, the cytotoxicity at 70.5 h came out at 2.23%.

Turning to `CC(C)c1nc(C2CCCN(C(=O)c3cccc4c3OCO4)C2)no1` (stereo not given), the cytotoxicity at 70.5 h was -1.62%.

Consider `NC(=O)NCC(=O)N1CCCC(c2nccn2Cc2ccncc2)C1` (stereo not given), for which the cytotoxicity at 70.5 h is -1.01%.

Consider `NC(=O)C(NCCc1ccc(Cl)s1)c1ccccc1` (stereo not given), for which the cytotoxicity at 70.5 h was -11.4%.

For `CS(=O)(=O)N1C[C@H](C(=O)Nc2cccnc2)C[C@H]2OCC[C@H]21`, the cytotoxicity at 70.5 h was determined as 6.21%.

Regarding `COc1ccc(-c2cc(C3CCNCC3)nc(C)n2)cc1`, the cytotoxicity at 70.5 h was -6.57%.

For `Cn1nnnc1SCCNC(=O)c1cccc2ccnn12`, the cytotoxicity at 70.5 h is 3.9%.

For `CN(C)Cc1csc(-c2nccn2Cc2ccc(C(=O)O)cc2)c1`, the cytotoxicity at 70.5 h was 19.3%.

Take `COc1ccc(CN2CC3(CCNCC3)CCC2=O)c(F)c1F`: the cytotoxicity at 70.5 h stood at 15.3%.

In the case of `CN1CCC(NC(=O)c2cc(Cl)cc(Br)c2O)C1=O` (stereo not given), the cytotoxicity at 70.5 h is -5.52%.

Consider `CCO[C@@H]1CC[C@H]2[C@H]1OCCN2C(=O)c1nn(C)c2ccccc12`, for which the cytotoxicity at 70.5 h was 2.67%.

`Cc1ncc(CN(C)C(=O)c2ccc(N3CCOCC3)c(F)c2)s1`: the cytotoxicity at 70.5 h was -6.71%.

In the case of `Cc1nc(-c2nnc[nH]2)sc1C(=O)N1CCCC1Cn1cccn1` (stereo not given), the cytotoxicity at 70.5 h was -3.3%.

Regarding `O=S1(=O)CCCN1Cc1coc(-c2ccc(C(F)(F)F)cc2)n1`, the cytotoxicity at 70.5 h was 11%.

In the case of `Cc1ccc(N2CCCc3sc(C(=O)NCc4cccnc4)nc32)nn1`, the cytotoxicity at 70.5 h was -10.4%.

On to `COc1ccc(NC(=O)c2ccco2)c(N2CCN(C(C)=O)CC2)n1`, for which the cytotoxicity at 70.5 h is -11.7%.

As for `CC(C)(C)c1coc([C@@H]2COCCN2Cc2c[nH]cn2)n1`, the cytotoxicity at 70.5 h amounted to 2.66%.

On to `Cc1nccn1Cc1cccc(CNC(=O)c2ccn(C)c(=O)c2)c1`, for which the cytotoxicity at 70.5 h turned out to be 13.1%.

As for `O=C(c1cc(-n2cccn2)ccn1)N1CCOc2ccncc21`, the cytotoxicity at 70.5 h is -0.581%.

In the case of `O=C(CCc1nccs1)N1CCN(c2ccc(Br)cn2)CC1`, the cytotoxicity at 70.5 h was 22.4%.

Turning to `Cc1cc(C(=O)NCCN2CCCc3ccccc32)[nH]n1`, the cytotoxicity at 70.5 h is 22.8%.

Turning to `O=C(c1cn(CCN2CCCCC2)nn1)N1CCSCC1`, the cytotoxicity at 70.5 h was -1.47%.

Regarding `Cc1nc(NC(=O)C(C)N2CCN(c3ccccc3F)CC2)sc1C` (stereo not given), the cytotoxicity at 70.5 h is -2.47%.

For the compound `O=C(COc1ccccc1)N1CCCC1c1ccc[nH]1` (stereo not given), the cytotoxicity at 70.5 h was -17.9%.

On to `CSCC(=O)N1CCCCC1Cn1cc(C)cn1` (stereo not given), for which the cytotoxicity at 70.5 h is -1.03%.

`O=C(NCC1CC1)[C@H]1C[C@H]2OCC[C@H]2N(Cc2ccsc2)C1`: the cytotoxicity at 70.5 h is -4.19%.

With `CC1CCN(C(=O)C2CCCN(C(=O)Nc3ccccn3)C2)CC1` (stereo not given), the cytotoxicity at 70.5 h was -9.24%.

Take `COCCN1CCCC2(CCN(Cc3nnc(C4CC4)o3)C2)C1=O` (stereo not given): the cytotoxicity at 70.5 h was -6.43%.

For the compound `NC(=O)Cn1c(CO)cnc1SCc1ccccc1Cl`, the cytotoxicity at 70.5 h was determined as 18.9%.

As for `CN(Cc1ccc(C(=O)Nc2sccc2C#N)cc1)Cc1ccno1`, the cytotoxicity at 70.5 h was -5.41%.

As for `Cc1cc(CN2CCCC2Cn2cccn2)no1` (stereo not given), the cytotoxicity at 70.5 h was -10.2%.

For `CCN(CC(=O)NC(C)C)S(=O)(=O)N1CCCCC1C` (stereo not given), the cytotoxicity at 70.5 h is -3.14%.

Consider `Cc1nc(C)n(CC2CCCN(CC(=O)N3CCCC3)C2)n1` (stereo not given), for which the cytotoxicity at 70.5 h is -4.82%.

As for `CS(=O)(=O)NC[C@H]1OC[C@@H]2CCN(CCc3ccccc3)C[C@@H]21`, the cytotoxicity at 70.5 h is 17.3%.

Turning to `CN(C)C(=O)COC1COC2(CCN(CC3CCOCC3)CC2)C1` (stereo not given), the cytotoxicity at 70.5 h is -4.78%.

Regarding `CC(C)CNC(=O)CNC(=O)Nc1cccc(Cl)c1-n1cccn1`, the cytotoxicity at 70.5 h was found to be 1.42%.

Consider `Cc1nccn1-c1ccc(C(=O)NCC(F)(F)F)nn1`, for which the cytotoxicity at 70.5 h is -1.99%.

Regarding `CNC(=O)c1ccc(CNC(=O)NCCN(C)C2CCCC2)cc1`, the cytotoxicity at 70.5 h is -1.36%.

Turning to `CCNc1ncc(C)c(-c2cnn(C)c2)n1`, the cytotoxicity at 70.5 h is -13.2%.

Regarding `COc1ccccc1C(C)NC(=O)N1CCC(n2cncn2)CC1` (stereo not given), the cytotoxicity at 70.5 h was -7.85%.

For `O=C(NCCCSc1ccc(F)cc1)C1CCc2cn[nH]c2C1` (stereo not given), the cytotoxicity at 70.5 h is -4.46%.

In the case of `Cc1nccc([C@@H]2C[C@@H]3CCN(Cc4c(C)noc4C)C[C@H]3O2)n1`, the cytotoxicity at 70.5 h is -10.7%.

`COc1ccc(NC(=O)CCC2CCCN(S(=O)(=O)C3CC3)C2)cc1Cl` (stereo not given): the cytotoxicity at 70.5 h was 5.12%.

As to `COC1(CNC(=O)NCCc2ccccc2)CCSC1` (stereo not given), the cytotoxicity at 70.5 h was 15.9%.

In the case of `COc1ccc(CCN2CCc3c(nc(C4CC4)n3C)C2)cc1`, the cytotoxicity at 70.5 h was -2.39%.

As for `COCCN1CC(c2cc(O)nc(NC(C)C)n2)CC1=O` (stereo not given), the cytotoxicity at 70.5 h was -6.05%.

With `CSc1ccc(NC(=O)Cn2cc(N)cn2)cc1`, the cytotoxicity at 70.5 h is -6.5%.

In the case of `COc1cc(CNC(=O)Nc2nncs2)ccc1O`, the cytotoxicity at 70.5 h was -1.98%.

Regarding `CCN(C)c1ncnc2c1CCN(C(=O)c1cccn1C)CC2`, the cytotoxicity at 70.5 h is 21%.

With `O=C(NCCc1nccs1)N1CCC(n2cccc2)CC1`, the cytotoxicity at 70.5 h was -9.14%.

As for `COCCN(Cc1cccc(O)c1)Cc1ccccc1F`, the cytotoxicity at 70.5 h came to 1.04%.

Regarding `CCc1cnc(CN(C)C2CCN(CCNS(=O)(=O)CC)C2)o1` (stereo not given), the cytotoxicity at 70.5 h came out at 2.11%.

With `COc1cc(NC(=O)C2CC(=O)N(c3cccc(F)c3)C2)ncn1` (stereo not given), the cytotoxicity at 70.5 h was -3.43%.

As for `CN1CCC2(COCCN(Cc3cccc(C#N)c3)C2)C1` (stereo not given), the cytotoxicity at 70.5 h is -0.504%.

For the compound `Cc1nnc(N2CCOC(CN(C)C)C2)c(C#N)c1C` (stereo not given), the cytotoxicity at 70.5 h was -6.93%.

Turning to `Cc1nonc1OCCNc1ncnc2sc3c(c12)CCNC3`, the cytotoxicity at 70.5 h was -3.76%.

Take `COc1ccc(Br)cc1CN(C)C(C)c1nc(C(C)C)no1` (stereo not given): the cytotoxicity at 70.5 h was -19.6%.

Regarding `Cc1cnc(N2CCCOC(CN3CCCCC3)C2)nc1` (stereo not given), the cytotoxicity at 70.5 h is -5.72%.

With `Cc1cc(C)cc(CNC(C)c2c(C)nn(C)c2C)c1` (stereo not given), the cytotoxicity at 70.5 h is -13.1%.

As for `COc1cccc(C2(NC(=O)CCNC(C)=O)CC2)c1`, the cytotoxicity at 70.5 h is 5.65%.

With `CC(O)CN(C)S(=O)(=O)c1ccc(C#N)cc1F` (stereo not given), the cytotoxicity at 70.5 h was -2.23%.

In the case of `Cc1ccc(CN2CCn3c(CN4CCN(C)CC4)cnc3C2C)s1` (stereo not given), the cytotoxicity at 70.5 h was determined as 21.3%.

On to `Cc1cc(C)n(CC(=O)N2CCC(NS(C)(=O)=O)CC2)n1`, for which the cytotoxicity at 70.5 h was -11.4%.

With `Cc1nc(C)n(C2CCCN(C(=O)c3csc(CC(C)C)n3)C2)n1` (stereo not given), the cytotoxicity at 70.5 h is -13.9%.

In the case of `Cc1nc[nH]c1CN1C[C@@H]2CC[C@H](C1)N(C(=O)c1cnn(C)c1)C2`, the cytotoxicity at 70.5 h is 7.73%.

With `CCn1cc(C(=O)N2CCCC(c3nccs3)C2)cn1` (stereo not given), the cytotoxicity at 70.5 h is -2.34%.

As to `Cc1ccccc1-n1ncc2c(=O)n(CCN3CCCC3)cnc21`, the cytotoxicity at 70.5 h was 26.8%.

Regarding `CCCS(=O)(=O)NCCn1ccc(-c2cccs2)n1`, the cytotoxicity at 70.5 h amounted to 25.9%.

As to `O=C(NCc1ccccc1)N1Cc2nc(COCC3CC3)oc2C1`, the cytotoxicity at 70.5 h stood at 4.6%.

Consider `CCc1cc(N(C)Cc2[nH]nc3c2CCC3)nc(N2CCOCC2)n1`, for which the cytotoxicity at 70.5 h is -15.5%.

With `CC(C)Nc1ncnc2c1CCN(Cc1ccoc1)CC2`, the cytotoxicity at 70.5 h is -12.6%.

For the compound `O=C(NCc1ccco1)[C@H]1C[C@H]2OCC[C@H]2N(C(=O)c2ccncc2)C1`, the cytotoxicity at 70.5 h was -12.4%.

On to `COc1ccc(CN(Cc2ccsc2)CC2CCCO2)cn1` (stereo not given), for which the cytotoxicity at 70.5 h is -2.5%.

Take `CCN1CCN(C(=O)c2ccc3c(c2)CCCN3)[C@H]2CS(=O)(=O)C[C@H]21`: the cytotoxicity at 70.5 h is -5.32%.

Consider `O=C(NCc1csc(Br)c1)c1ccncc1`, for which the cytotoxicity at 70.5 h is -16.8%.

Consider `Cc1ccc(C(=O)N2CCCC(NC(=O)C(C)C)C2)c(O)c1` (stereo not given), for which the cytotoxicity at 70.5 h is -3.17%.

For the compound `CCOC1Sc2nnc(C)n2N=C1c1ccc(F)cc1` (stereo not given), the cytotoxicity at 70.5 h was -5.95%.

Consider `Cc1nnc([C@H]2CC[C@@H]3[C@@H](CCN3Cc3c(C)noc3C)O2)o1`, for which the cytotoxicity at 70.5 h was -5.84%.

Turning to `Cc1ccc(CN2CCC3(CCN(c4cnn(C)c4)C3=O)C2)s1` (stereo not given), the cytotoxicity at 70.5 h is 13.4%.

As to `Cc1ncsc1CN1CC[C@H]2OCC[C@@]2(C(=O)N2CCCO2)C1`, the cytotoxicity at 70.5 h is -2.27%.

Turning to `Cn1cc(C(=O)N2CCCCC2CCc2ccccc2)cn1` (stereo not given), the cytotoxicity at 70.5 h was -10.6%.

As for `N#CC1COCCN1C(=O)c1cccc2cc[nH]c12` (stereo not given), the cytotoxicity at 70.5 h is -13.5%.

For `Cc1nc(CNC(=O)c2cc(Cn3ccnc3C(C)C)[nH]n2)sc1C`, the cytotoxicity at 70.5 h was -14.3%.

Take `Cc1cc(C(=O)N2CCCC2)ccc1NCC(=O)N1CCOCC1`: the cytotoxicity at 70.5 h was -6.05%.

For `O=C(O)CCCNC(=O)N1CCc2c([nH]c3ccc(Cl)cc23)C1`, the cytotoxicity at 70.5 h is -7.18%.

Turning to `CN(Cc1c(Cl)ccc2cccnc12)CC(C)(CO)CO`, the cytotoxicity at 70.5 h is -10.4%.

As for `O=C(CO)N1CCN(S(=O)(=O)CCCF)CC1`, the cytotoxicity at 70.5 h turned out to be 3.01%.

With `O=C(O)CCCc1ccc2c(c1)CC(=O)N2`, the cytotoxicity at 70.5 h is -9.78%.

As for `CN1CCC(N2CC[C@@H]3[C@@H](CCC(=O)N3CCC3=CCCCC3)C2)CC1`, the cytotoxicity at 70.5 h was -1.35%.

For the compound `Cc1cc(C)n(Cc2cc(C(=O)N3CCCCC3c3nccs3)n[nH]2)n1` (stereo not given), the cytotoxicity at 70.5 h is 8.98%.

Take `CC(C)[C@H]1COC(=O)N1Cc1noc(-c2ccccc2)n1`: the cytotoxicity at 70.5 h is -7.59%.

Turning to `Cn1cc(CNC2CCOCC2)c(-c2cc3ccccc3o2)n1`, the cytotoxicity at 70.5 h is -5.58%.

As for `CSc1ccccc1CCC1CCS(=O)(=O)C1` (stereo not given), the cytotoxicity at 70.5 h is -1.45%.

As to `COCC(O)CN(C)C(=O)NC1CCN(S(C)(=O)=O)CC1` (stereo not given), the cytotoxicity at 70.5 h was -7.83%.
